Laboratory results: patent US8637518B2, “Pyridazinone derivatives” (MERCK PATENT GmbH, priority 2008, dated 2014)

Columns and labels:
TPR-Met/NIH3T3 cells = test: In-vivo tests: tumour volume in mice injected subcutaneously with TPR-Met/NIH3T3 cells; conditions: female Balb/C mice, subcutaneous TPR-Met/NIH3T3 tumours, 200 mg/kg daily by gastric tube, 9 days
Method: Experimental procedure: Female Balb/C mice (breeder: Charles River Wiga) were 5 weeks old on arrival. They were acclimatised to our keeping conditions for 7 days. Each mouse was subsequently injected subcutaneously in the pelvic area with 4 million TPR-Met/NIH3T3 cells in 100 μl of PBS (without Ca++ and Mg++). […] 100 μl of vehicle (0.25% methylcellulose/100 mM acetate buffer, pH 5.5) were administered daily to the control group, and 200 mg/kg of “A56” or “A91” dissolved in the vehicle (volume likewise 100 μl/animal) were administered daily to the treatment groups, in each case by gastric tube.
Measurement of the tumour volume: The length (L) and breadth (B) were measured using a Vernier calliper, and the tumour volume was calculated from the formula L×B×B/2.
Keeping conditions: 4 or 5 animals per cage, feeding with commercial mouse food (Sniff).

Met kinase = target: T1, Met kinase (Homo sapiens, UniProt P08581); test: Met kinase inhibition, enzyme assay (flashplate method); assay type: biochemical
T1 construct: 6His (N); purchased Upstate 14-526; host or cells: Sf21 insect cells (S. frugiperda), baculovirus
Text: According to the manufacturer's data (Met, active, upstate, catalogue No. 14-526), Met kinase is expressed for the purposes of protein production in insect cells (Sf21; S. frugiperda) and subsequent affinity-chromatographic purification as “N-terminal 6His-tagged” recombinant human protein in a baculovirus expression vector.
The test plates used are 96-well Flashplate® microtitre plates from Perkin Elmer (Cat. No. SMP200). The components of the kinase reaction described below are pipetted into the assay plate. The Met kinase and the substrate poly Ala-Glu-Lys-Tyr, (pAGLT, 6:2:5:1), are incubated for 3 hrs at room temperature with radioactively labelled ^33P-ATP in the presence and absence of test substances in a total volume of 100 μl. The reaction is terminated using 150 μl of a 60 mM EDTA solution. After incubation for a further 30 min at room temperature, the supernatants are filtered off with suction, and the wells are washed three times with 200 μl of 0.9% NaCl solution each time. The measurement of the bound radioactivity is carried out by means of a scintillation measuring instrument (Topcount NXT, Perkin-Elmer).
The full value used is the inhibitor-free kinase reaction. This should be approximately in the range 6000-9000 cpm. The pharmacological zero value used is staurosporin in a final concentration of […]. The inhibitory values ([…]) are determined using the RS1_MTS program.
Kinase reaction conditions per well:
• 30 μl of assay buffer • 10 μl of substance to be tested in assay buffer with 10% of DMSO • 10 μl of ATP (final concentration 1 μM cold, 0.35 μCi of ^33P-ATP) • 50 μl of Met kinase/substrate mixture in assay buffer; • (10 ng of enzyme/well, 50 ng of pAGLT/well)
Solutions used: • Assay buffer:
50 mM HEPES • 3 mM magnesium chloride • 3 μM sodium orthovanadate • 3 mM manganese(II) chloride • 1 mM dithiothreitol (DTT)
pH=7.5 (to be set using sodium hydroxide) • Stop solution:
60 mM Titriplex III (EDTA) • ^33P-ATP: Perkin-Elmer; • Met kinase: Upstate, Cat. No. 14-526, Stock 1 μg/10 μl; spec. activity 954 U/mg; • Poly-Ala-Glu-Lys-Tyr, 6:2:5:1: Sigma Cat. No. P1152 In-vivo tests

T1 sequence (P08581 974-1390 limits assumed): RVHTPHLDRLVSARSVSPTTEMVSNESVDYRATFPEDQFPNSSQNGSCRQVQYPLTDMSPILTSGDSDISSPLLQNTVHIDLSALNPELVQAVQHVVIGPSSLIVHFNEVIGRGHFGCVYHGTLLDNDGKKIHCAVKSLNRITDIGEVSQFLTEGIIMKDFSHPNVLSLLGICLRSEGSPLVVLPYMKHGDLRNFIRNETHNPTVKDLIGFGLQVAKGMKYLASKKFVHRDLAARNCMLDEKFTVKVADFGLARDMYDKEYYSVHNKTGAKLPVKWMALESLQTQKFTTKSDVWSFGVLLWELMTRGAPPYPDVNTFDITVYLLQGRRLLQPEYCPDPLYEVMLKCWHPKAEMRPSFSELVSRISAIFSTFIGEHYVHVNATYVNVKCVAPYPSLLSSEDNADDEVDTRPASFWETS

IC50 (Met kinase) [µM] | melting point [°C] | SMILES | antitumoural action (TPR-Met/NIH3T3 cells)
– | – | Cn1cc(-c2ccc(=O)n(Cc3cccc(-c4ncc(OC5CCC(O)C5)cn4)c3)n2)cn1 (stereo not shown) [Compound A22, 2-{3-[5-(3-hydroxycyclopentyloxy)pyrimidin-2-yl]benzyl}-6-(1-methyl-1H-pyrazol-4-yl)-2H-pyridazin-3-one] | significant antitumoural action
0.01 to 1 | – | Cn1cc(-c2ccc(=O)n(Cc3cccc(-c4ncc(OC[C@H]5C[C@@H]5CN)cn4)c3)n2)cn1 [Compound A18, 2-{3-[5-((1S,2S)-2-Aminomethylcyclopropylmethoxy)pyrimidin-2-yl]benzyl}-6-(1-methyl-1H-pyrazol-4-yl)-2H-pyridazin-3-one] | significant antitumoural action
– | 242 to 243 | CNC(=O)COc1cnc(-c2cccc(Cn3nc(-c4cnn(C)c4)ccc3=O)c2)nc1 [Compound A27, N-Methyl-2-(2-{3-[3-(1-methyl-1H-pyrazol-4-yl)-6-oxo-6H-pyridazin-1-ylmethyl]phenyl}pyrimidin-5-yloxy)acetamide] | –
